Structures are written as SMILES. Inconclusive results and toxic doses are left out.

In this assay the test system is L1210 leukemia ip in BDF1 mice, survival T/C. Nature of the assay: NCI In Vivo Anticancer Drug Screen. Data for tumor model L1210 Leukemia (intraperitoneal) in B6D2F1 (BDF1) mice. The settings on record: endpoint: mean survival time, higher = longer survival. The method in brief:
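Tumor was transplanted into mice, which were then dosed with test compound or vehicle alone. Survival was recorded for each group, and the treated figure was expressed relative to the control figure.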

Setting [1] is: dose: 300.0 mg/kg/injection, schedule: Q01DX001 (ip), vehicle: saline.
[2] abbreviates: dose: 100.0 mg/kg/injection, schedule: Q04DX003 (ip), vehicle: Klucel (hydroxypropylcellulose) (HPC).
Setting [3] is: dose: 200.0 mg/kg/injection, schedule: Q04DX003 (ip), vehicle: Klucel (hydroxypropylcellulose) (HPC).
The mark [4] stands for this setting: dose: 400.0 mg/kg/injection, schedule: Q04DX003 (ip), vehicle: Klucel (hydroxypropylcellulose) (HPC).
[5] abbreviates: dose: 100.0 mg/kg/injection, schedule: Q01DX001 (ip), vehicle: saline.
Where [6] appears, read: dose: 200.0 mg/kg/injection, schedule: Q01DX001 (ip), vehicle: saline.
Where [7] appears, read: dose: 100.0 mg/kg/injection, schedule: Q04DX002 (ip), vehicle: Klucel (hydroxypropylcellulose) (HPC).
[8] abbreviates: dose: 50.0 mg/kg/injection, schedule: Q04DX003 (ip), vehicle: Klucel (hydroxypropylcellulose) (HPC).
[9] abbreviates: dose: 400.0 mg/kg/injection, schedule: Q01DX001 (ip), vehicle: saline.

With `Cc1noc(C)c1[N+](=O)[O-]`, the T/C runs as follows: (dose: 75.0 mg/kg/injection, schedule: Q01DX009 (ip), vehicle: saline) 97 % of control; (dose: 150.0 mg/kg/injection, schedule: Q01DX009 (ip), vehicle: saline) 94 % of control; (dose: 300.0 mg/kg/injection, schedule: Q01DX009 (ip), vehicle: saline) 101 % of control.

As for `CCCC(C)OS(=O)(=O)c1ccc([N+](=O)[O-])cc1` (stereo unspecified), the T/C reads like this: (dose: 100.0 mg/kg/injection, schedule: Q04DX002 (ip), vehicle: saline) 101 % of control; (dose: 200.0 mg/kg/injection, schedule: Q04DX002 (ip), vehicle: saline) 90 % of control; (dose: 400.0 mg/kg/injection, schedule: Q04DX002 (ip), vehicle: saline) 92 % of control.

As to `CC[n+]1cccc(C#N)c1`, the T/C (dose: 75.0 mg/kg/injection, schedule: Q01DX001 (ip), vehicle: saline) was 98 % of control; the T/C (dose: 75.0 mg/kg/injection, schedule: Q04DX003 (ip), vehicle: saline) is 93 % of control; the T/C (dose: 150.0 mg/kg/injection, schedule: Q01DX001 (ip), vehicle: saline) is 103 % of control; the T/C (dose: 150.0 mg/kg/injection, schedule: Q04DX003 (ip), vehicle: saline) is 98 % of control; the T/C under setting [1] is 101 % of control.

With `N#C/C(=C/c1ccnc2ccccc12)c1ccccc1`, the T/C was 101 % of control under setting [2], 101 % of control under setting [3] and 95 % of control under setting [4].

On to `O=C(N/N=C/c1ccc(O)cc1)C(c1ccccc1)N1CCCCC1` (stereo unspecified), for which the T/C by setting is: (dose: 100.0 mg/kg/injection, schedule: Q01DX001 (ip), vehicle: other) 102 % of control; (dose: 200.0 mg/kg/injection, schedule: Q01DX001 (ip), vehicle: other) 93 % of control; (dose: 400.0 mg/kg/injection, schedule: Q01DX001 (ip), vehicle: other) 96 % of control.

Turning to `O=C1CC2CCC(C1)N2CC1COc2ccccc2O1` (stereo unspecified), the T/C is 100 % of control under setting [5] and 120 % of control under setting [6].

With `COc1ccccc1/C=C/C(=O)O`, the T/C is 98 % of control (dose: 25.0 mg/kg/injection, schedule: Q04DX002 (ip), vehicle: Klucel (hydroxypropylcellulose) (HPC)); 100 % of control (dose: 50.0 mg/kg/injection, schedule: Q04DX002 (ip), vehicle: Klucel (hydroxypropylcellulose) (HPC)); 88 % of control under setting [7].

On to `O=C(O)CCC(=O)c1ccc2c(c1)CCCC2`, for which the T/C is 95 % of control (dose: 3.13 mg/kg/injection, schedule: Q01DX009 (ip), vehicle: saline with Tween-80); 92 % of control (dose: 6.25 mg/kg/injection, schedule: Q01DX009 (ip), vehicle: saline with Tween-80); 93 % of control (dose: 12.5 mg/kg/injection, schedule: Q01DX009 (ip), vehicle: saline with Tween-80).

Turning to `Cc1ccc(C(=O)/C=C2/SS/C(=C/C(=O)c3ccc(C)cc3)S2)cc1`, the T/C is 100 % of control under setting [8]; 92 % of control (dose: 100.0 mg/kg/injection, schedule: Q01DX001 (ip), vehicle: Klucel (hydroxypropylcellulose) (HPC)); 97 % of control under setting [2]; 95 % of control (dose: 200.0 mg/kg/injection, schedule: Q01DX001 (ip), vehicle: Klucel (hydroxypropylcellulose) (HPC)); 106 % of control under setting [3]; 98 % of control (dose: 400.0 mg/kg/injection, schedule: Q01DX001 (ip), vehicle: Klucel (hydroxypropylcellulose) (HPC)). Moreover, the T/C under setting [4] is 110 % of control.

As to `O=[N+]([O-])c1cccc(CNc2ccccc2)c1`, the T/C by setting is: (dose: 100.0 mg/kg/injection, schedule: Q01DX001 (ip), vehicle: saline with Tween-80) 98 % of control; (dose: 200.0 mg/kg/injection, schedule: Q01DX001 (ip), vehicle: saline with Tween-80) 95 % of control; (dose: 400.0 mg/kg/injection, schedule: Q01DX001 (ip), vehicle: saline with Tween-80) 93 % of control.

Turning to `Clc1cc(Cl)c2c(c1)COCO2`, the T/C runs as follows: (dose: 25.0 mg/kg/injection, schedule: Q01DX009 (ip), vehicle: Klucel (hydroxypropylcellulose) (HPC)) 109 % of control; (dose: 50.0 mg/kg/injection, schedule: Q01DX009 (ip), vehicle: Klucel (hydroxypropylcellulose) (HPC)) 104 % of control; (dose: 100.0 mg/kg/injection, schedule: Q01DX009 (ip), vehicle: Klucel (hydroxypropylcellulose) (HPC)) 106 % of control; under setting [2], 97 % of control; under setting [3], 102 % of control; under setting [4], 111 % of control.

Consider `CCCCCCC(=O)C1OC1CCCCCCCCC(=O)O` (stereo unspecified), for which the T/C runs as follows: (dose: 100.0 mg/kg/injection, schedule: Q04DX002 (ip), vehicle: other) 112 % of control; (dose: 400.0 mg/kg/injection, schedule: Q04DX002 (ip), vehicle: other) 94 % of control.

On to `O=C(O)c1ccccc1C(=O)c1ccc(Br)cc1`, for which the T/C under setting [2] is 93 % of control, the T/C under setting [3] is 96 % of control and the T/C under setting [4] is 104 % of control.

Turning to `NC(=O)N/N=C/c1cc(=O)[nH]c(=O)[nH]1`, the T/C was 88 % of control under setting [5], 97 % of control under setting [6] and 97 % of control under setting [9].

With `C/C(=C/Cl)OC(C)C`, the T/C is 99 % of control (dose: 50.0 mg/kg/injection, schedule: Q01DX009 (ip), vehicle: acetone); 99 % of control (dose: 100.0 mg/kg/injection, schedule: Q01DX009 (ip), vehicle: acetone); 101 % of control (dose: 200.0 mg/kg/injection, schedule: Q01DX009 (ip), vehicle: acetone).

In the case of `N=C(N)SCc1ccc([N+](=O)[O-])cc1`, the T/C under setting [5] was 103 % of control and the T/C under setting [6] is 97 % of control.

On to `O=NN(CCCl)C(=O)Nc1ccc(NC(=O)N(CCCl)N=O)cc1`, for which the T/C under setting [5] is 201 % of control; the T/C under setting [6] is 182 % of control; the T/C under setting [1] is 230 % of control; the T/C under setting [9] is 264 % of control; the T/C (dose: 500.0 mg/kg/injection, schedule: Q01DX001 (ip), vehicle: saline) is 285 % of control; the T/C (dose: 600.0 mg/kg/injection, schedule: Q01DX001 (ip), vehicle: saline) is 300 % of control. Further, the T/C reads like this: (dose: 800.0 mg/kg/injection, schedule: Q01DX001 (ip), vehicle: saline) 291 % of control; (dose: 1000.0 mg/kg/injection, schedule: Q01DX001 (ip), vehicle: saline) 268 % of control.

As for `O=C1C=C(NNc2ccccc2)CCC1`, the T/C is 92 % of control (dose: 75.0 mg/kg/injection, schedule: Q01DX001 (ip), vehicle: steriod suspending solution); 95 % of control (dose: 150.0 mg/kg/injection, schedule: Q01DX001 (ip), vehicle: steriod suspending solution); 92 % of control (dose: 300.0 mg/kg/injection, schedule: Q01DX001 (ip), vehicle: steriod suspending solution).

Take `CC(=O)c1cc(-c2ccc(Cl)c(Cl)c2)nc2c(Cl)cc(Cl)cc12`: the T/C under setting [5] was 104 % of control, the T/C under setting [6] was 103 % of control and the T/C under setting [9] is 103 % of control.

Take `C1CC(C2OCOC3COCOC32)OO1` (stereo unspecified): the T/C by setting is: (dose: 222.0 mg/kg/injection, schedule: Q01DX Z (ip), vehicle: methylcellulose (MC)) 89 % of control; (dose: 333.0 mg/kg/injection, schedule: Q01DX Z (ip), vehicle: methylcellulose (MC)) 104 % of control; (dose: 500.0 mg/kg/injection, schedule: Q01DX Z (ip), vehicle: methylcellulose (MC)) 92 % of control.

In the case of `CC(=O)CC(C)=O.CCCCC(C[C-]=O)N(CC)CC.[Pd+2]` (stereo unspecified), the T/C is, setting by setting: (dose: 2.4 mg/kg/injection, schedule: Q04DX003 (ip), vehicle: distilled water + Tween-80) 97 % of control; (dose: 4.7 mg/kg/injection, schedule: Q04DX003 (ip), vehicle: distilled water + Tween-80) 101 % of control; (dose: 9.4 mg/kg/injection, schedule: Q04DX003 (ip), vehicle: distilled water + Tween-80) 98 % of control; (dose: 18.8 mg/kg/injection, schedule: Q04DX003 (ip), vehicle: distilled water + Tween-80) 90 % of control.

In the case of `C[n+]1ccccc1/C=C/c1cccc(O)c1`, the T/C is 103 % of control (dose: 9.38 mg/kg/injection, schedule: Q01DX001 (ip), vehicle: other) and 100 % of control (dose: 18.75 mg/kg/injection, schedule: Q01DX001 (ip), vehicle: other).

For the compound `COc1cc2c(cc1OC)/C(=N/N)CCC2`, under setting [8], the T/C is 95 % of control.

As for `O=C(Nc1ccc(F)cc1)c1ccc([N+](=O)[O-])cc1`, the T/C was 95 % of control under setting [7]; 95 % of control (dose: 200.0 mg/kg/injection, schedule: Q04DX002 (ip), vehicle: Klucel (hydroxypropylcellulose) (HPC)); 92 % of control (dose: 400.0 mg/kg/injection, schedule: Q04DX002 (ip), vehicle: Klucel (hydroxypropylcellulose) (HPC)).
